Reference: paper PMC4202157, “Amphipathic tail-anchoring peptide is a promising therapeutic agent for prostate cancer treatment” (Oncotarget, 2014)
Entries after “also recorded” stand apart in the source; their conditions may differ. Bridge positions count the residues as written; N and C are the ends. Peptide text beside a SMILES is read from it.

Experiments:
DU145 cells [1] = assay: MTT cell viability assay, DU145 cells; type: cell-based
Protocol: (§1) The human esophageal squamous carcinoma cell line KYSE-150 was provided by Dr. Chung S. Yang (Rutgers University, Piscataway, NJ)[41, 42]. DU145, LNCaP, PC-3, K562, U87 and MDA-MB-231 cells were purchased from American Type Culture Collection and cultured with designated medium, supplemented with 10% fetal bovine serum, 100 unit/ml penicillin, and 100 μg/ml streptomycin. Cell viability was determined by MTT assay. Cells were plated at 1,000-1,500 cells per well in a 96-well plate and then treated with indicated amounts of ATAP peptides for 48 hours. Then, 20 μl (5 mg/ml in PBS) MTT [3-(4,5-dimethylthiazol-2-yl)-2,5-diphenyltetrazolium bromide] (Sigma Chemical Co., St. Louis, Mo.) was added to each well. After another 4 hours, 150 μL DMSO was added to dissolve formazan crystals in each well, and the absorbance were recorded at 570 nm.

SV129 mice = assay: Repetitive intravenous injection toxicity in SV129 mice; type: in vivo
Protocol: For further evaluation of the in vivo toxic effect of ATAP-iRGD, repetitive injections of ATAP-iRGD into the immune intact SV129 mice were conducted.

[2] = system: MDA-MB-231 breast adenocarcinoma cells; type: cell-based; conditions: 48 h
Protocol: as §1

U87 glioblastoma cells = type: cell-based; conditions: 48 h
Protocol: as §1

LNCaP cells = type: cell-based; conditions: 48 h
Protocol: as §1

PC-3 cells = type: cell-based; conditions: 48 h
Protocol: as §1

[3] = system: KYSE-150 esophageal squamous carcinoma cells; type: cell-based, human; conditions: 48 h
Protocol: as §1

K562 cells = type: cell-based, human; conditions: 48 h
Protocol: as §1

[4] = Precipitation / aggregation of peptide in cell culture medium; type: physicochemical; conditions: for Precipitation in normal culture medium: 200 μM peptide added to DU145 cells in normal culture medium, 37 °C, 24 hours incubation, microscopy
[5] = system: kidney, heart, liver, lung and spleen; assay: H&E organ pathology in xenograft nude mice; type: in vivo, NCR nude mice; conditions: xenograft nude mice after peptide treatment, vs control
Protocol: (§2) Handling of animals was performed in accordance with protocols approved by the Institutional Animal Care and Use Committee (IACUC) of the Ohio State University. Five week-old NCR nude mice (Taconic Farms, Germantown, NY) were implanted subcutaneously in both flanks with 2 ×10^6 DU145 or PC-3 cells. After tumors reached 4 to 7 mm in diameter (about 9~14 days after implantation), the mice were randomly divided into two groups so that both the mean and the variance of the tumor diameters are of no significant difference among the groups prior to treatment. The ATAP-iRGD-M8 peptide was injected through tail vein once every two days during the whole procedure. Tumor volume was measured by a digital caliper (Thermo Fisher Scientific, Waltham, MA). Tumor volume was determined from the orthogonal dimensions (length, width) using the formula: tumor volume = 1/2(length × width^2). According to the IACUC guideline, the experiments will be terminated when tumors reached 1.5 cm in diameter. At the end of experiment, mice were sacrificed and xenografts were removed and weighted. For toxicological evaluation of peptide treatments, mouse body weights were measured every four days. […]

DU145 cells [6] = assay: Live-cell confocal imaging of peptide uptake and mitochondria localization; type: cell-based; conditions: 2 μM Dylight488-labeled peptide, Mito Tracker Red, 50 μM Q-VD-OPh, confocal microscopy
Protocol: ATAP-iRGD and ATAP-iRGD-M8 peptides were labeled with an amine-reactive DyLight488 fluorophore (Pierce Biotechnology, Rockford, USA) according to the manufacturer's instructions. DU145 cells were cultured in the presence of 2 μM Dylight488-labeled ATAP-iRGD or ATAP-iRGD-M8 plus 50 nM Mito Tracker Red (Molecular Probes Inc., Eugene, OR). 50 μM Q-VD-OPh was added to the culture medium in order to prevent cell apoptosis. Sample images were taken by BioRad 2100 Radiance laser scanning confocal microscope (Bio-Rad Laboratories, Hercules, CA) with a 60×, 1.3NA oil immersion objective (Nikon Instruments Inc., Melville, NY).

DU145 xenograft = DU145 xenograft in nude mice; type: in vivo, NCR nude mice
Protocol: as §2

PC-3 xenograft = PC-3 xenograft in nude mice; type: in vivo, NCR nude mice; conditions: tail vein injection once every two days
Protocol: as §2

With `CC[C@H](C)[C@H](NC(=O)[C@H](CCCCN)NC(=O)CNC(=O)[C@@H](NC(=O)[C@@H](NC(=O)[C@H](CCC(=O)O)NC(=O)[C@H](CC(C)C)NC(=O)[C@H](Cc1ccccc1)NC(=O)[C@@H](NC(=O)[C@H](CCSC)NC(=O)[C@H](Cc1c[nH]c2ccccc12)NC(=O)CNC(=O)[C@H](CO)NC(=O)[C@H](CCCCN)NC(=O)[C@@H]1CCCN1C(=O)[C@H](CCC(=O)O)NC(=O)[C@H](Cc1ccccc1)NC(=O)[C@@H](N)CCCCN)[C@@H](C)O)C(C)C)[C@@H](C)O)C(=O)N[C@@H](C)C(=O)N[C@@H](CCC(=O)O)C(=O)N[C@@H](CCSC)C(=O)N[C@@H](CC(C)C)C(=O)N[C@@H](CO)C(=O)N[C@@H](CC(C)C)C(=O)N[C@@H](CC(C)C)C(=O)N[C@@H](CCCCN)C(=O)N[C@@H](CCC(N)=O)C(=O)N[C@@H](Cc1ccc(O)cc1)C(=O)N[C@H]1CSSC[C@@H](C(=O)O)NC(=O)[C@H](CC(=O)O)NC(=O)[C@@H]2CCCN2C(=O)CNC(=O)[C@H](CCCCN)NC(=O)[C@H](CC(=O)O)NC(=O)CNC(=O)[C@H](CCCNC(=N)N)NC1=O` [ATAP-iRGD] (H-KFEPKSGWMTFLEVTGKIAEMLSLLKQYCRGDKGPDC-OH; disulfide 29-37) the IC50 (DU145 cells [1]; 48 h) was 1.6 ± 0.5 µM, the “Signs of toxicity on repetitive injection” value (SV129 mice; immune intact SV129 mice, repetitive intravenous injections) was “no visible signs or symptoms of toxicity” and the “H&E pathology of kidney, heart, liver, lung and spleen” value (SV129 mice; mouse, in vivo, iv) was “no significant pathological abnormalities”. The IC50 [2] was 5.9 ± 1.1 µM, the IC50 (U87 glioblastoma cells) was 10.3 ± 2.6 µM and the IC50 (LNCaP cells) was 7.1 ± 1.7 µM. For the same compound, the IC50 (PC-3 cells) was 9.2 ± 1.6 µM, the IC50 [3] was 4.4 ± 0.5 µM and the IC50 (K562 cells) was 107 ± 41 µM.

With `CC[C@H](C)[C@H](NC(=O)[C@H](CCCCN)NC(=O)CNC(=O)[C@@H](NC(=O)[C@@H](NC(=O)[C@H](CCC(=O)O)NC(=O)[C@H](CC(C)C)NC(=O)[C@H](Cc1ccccc1)NC(=O)[C@@H](NC(=O)[C@H](CCSC)NC(=O)[C@H](Cc1c[nH]c2ccccc12)NC(=O)CNC(=O)[C@H](CO)NC(=O)[C@H](CCCCN)NC(=O)[C@@H]1CCCN1C(=O)[C@H](CCC(=O)O)NC(=O)[C@H](Cc1ccccc1)NC(=O)[C@@H](N)CCCCN)[C@@H](C)O)C(C)C)[C@@H](C)O)C(=O)N[C@@H](C)C(=O)N[C@@H](CCC(=O)O)C(=O)N[C@@H](CCSC)C(=O)N[C@@H](CC(C)C)C(=O)N[C@@H](CO)C(=O)N[C@@H](CC(C)C)C(=O)N[C@@H](CC(C)C)C(=O)N[C@@H](CC(C)C)C(=O)N[C@@H](CCC(N)=O)C(=O)N[C@@H](Cc1ccc(O)cc1)C(=O)N[C@H]1CSSC[C@@H](C(=O)O)NC(=O)[C@H](CC(=O)O)NC(=O)[C@@H]2CCCN2C(=O)CNC(=O)[C@H](CCCCN)NC(=O)[C@H](CC(=O)O)NC(=O)CNC(=O)[C@H](CCCNC(=N)N)NC1=O` [Mutant M4] (H-KFEPKSGWMTFLEVTGKIAEMLSLLLQYCRGDKGPDC-OH; disulfide 29-37) the “Cytotoxic activity in DU145 cells, in words” value (DU145 cells [1]; MTT assay, 48 hours, unconjugated ATAP tested at 0.01 – 100 μM) was “complete abolishment of the cytotoxic activity”.

For “Ac-KFEPKSGWMTFLEVTGKIAEMLSLLKQYCRGDKGPDC-NH2 (disulfide 29-37 (inferred)) [Mutant M7, ATAP-iRGD with acetylated amino terminus and amidated carboxyl terminus]”, the “Precipitation in normal culture medium” value [4] was “precipitate; also recorded: pronounced precipitation”.

With “Ac-KKFEPKSGWMTFLEVTGKIAEMLSLLKQYCRGDKGPDC-NH2 (disulfide 30-38 (inferred)) [ATAP-iRGD-M8, ATAP-iRGD with one more Lys, acetylated and amidated termini]” the “Precipitation in normal culture medium” value [4] was “no precipitation”, the “Concentration at which no precipitation was observed” value ([4]; normal cell culture medium, neutral pH, prolonged incubation) was “above 200 μM” and the “H&E pathology of kidney, heart, liver, lung and spleen” value [5] was “no obvious changes”. For the same compound, the “Cell uptake and mitochondria localization” value (DU145 cells [6]) was “clear mitochondria target pattern”, the “DU145 xenograft volume vs saline” value (DU145 xenograft; 21 mg/kg via tail vein once every two days, n=6 treated, n=9 saline) was “significantly smaller” and the “DU-145 xenograft weight at end of experiment” value (DU145 xenograft; xenografts dissected and weighted, mean±SEM, P<0.05 (Fig. S2)) was “significantly suppressed DU-145 tumor growth”. For the same compound, the “PC-3 xenograft tumor growth vs saline” value (PC-3 xenograft) was “significant suppression of tumor growth”.
